Our source for the melting point and IC50 values is patent US20030207877A1, “Pyridoquinoxaline antivirals” (priority 2001, published 2003).

Some results are limits rather than exact numbers.

As usually defined, the melting point is the temperature of the solid-liquid transition. One may read the IC50 as the midpoint of a concentration-inhibition curve.

The target in one data set is T1, HCMV polymerase (Human cytomegalovirus, UniProt P08546).
T1 construct: made in house; host or cells: SF-9 insect cells infected with recombinant baculovirus
T1 sequence (P08546 whole entry): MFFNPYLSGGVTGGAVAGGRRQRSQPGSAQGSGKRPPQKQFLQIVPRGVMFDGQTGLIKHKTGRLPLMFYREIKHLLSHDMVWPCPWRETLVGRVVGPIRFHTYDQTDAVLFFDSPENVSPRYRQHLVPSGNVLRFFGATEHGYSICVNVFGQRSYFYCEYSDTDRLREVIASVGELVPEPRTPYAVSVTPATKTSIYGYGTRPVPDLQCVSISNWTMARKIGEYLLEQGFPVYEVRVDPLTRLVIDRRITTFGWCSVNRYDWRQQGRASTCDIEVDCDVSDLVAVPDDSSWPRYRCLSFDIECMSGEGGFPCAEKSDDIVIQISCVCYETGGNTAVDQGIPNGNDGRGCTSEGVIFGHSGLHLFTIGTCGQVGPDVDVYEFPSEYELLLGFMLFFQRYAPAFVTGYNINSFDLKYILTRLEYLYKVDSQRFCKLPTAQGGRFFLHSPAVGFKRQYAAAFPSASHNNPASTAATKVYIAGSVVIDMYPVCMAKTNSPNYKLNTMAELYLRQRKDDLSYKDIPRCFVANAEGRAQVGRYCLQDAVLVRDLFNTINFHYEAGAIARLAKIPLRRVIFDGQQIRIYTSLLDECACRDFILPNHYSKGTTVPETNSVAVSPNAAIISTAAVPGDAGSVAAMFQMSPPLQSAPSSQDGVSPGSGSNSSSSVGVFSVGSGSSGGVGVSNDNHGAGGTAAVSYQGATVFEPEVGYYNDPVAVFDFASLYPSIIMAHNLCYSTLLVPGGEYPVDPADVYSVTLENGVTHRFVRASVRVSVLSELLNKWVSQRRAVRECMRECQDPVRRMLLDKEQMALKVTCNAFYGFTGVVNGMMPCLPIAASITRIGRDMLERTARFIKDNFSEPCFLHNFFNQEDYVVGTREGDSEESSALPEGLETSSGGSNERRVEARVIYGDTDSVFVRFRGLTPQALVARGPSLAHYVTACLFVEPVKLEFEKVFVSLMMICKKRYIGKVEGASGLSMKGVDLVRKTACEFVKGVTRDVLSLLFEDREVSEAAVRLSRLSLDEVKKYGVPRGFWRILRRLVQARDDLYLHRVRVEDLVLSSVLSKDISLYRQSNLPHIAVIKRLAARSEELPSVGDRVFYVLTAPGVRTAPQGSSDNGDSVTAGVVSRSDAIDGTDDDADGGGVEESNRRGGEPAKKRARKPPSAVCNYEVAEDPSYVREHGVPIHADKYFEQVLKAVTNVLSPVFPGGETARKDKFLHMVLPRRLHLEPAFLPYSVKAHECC
Description: HCMV polymerase assay (scintillation proximity assay), original and modified version. The settings on record: SPA; several values per example = repeat determinations, assay version not given; read-out: CMV Polymerase IC50. The data set is classed as biochemical. As for the experimental part:
The HCMV polymerase assay is performed using a scintillation proximity assay (SPA) as described in several references, such as N.D. Cook, et al., Pharmaceutical Manufacturing International, pages 49-53 (1992); K. Takeuchi, Laboratory Practice, September issue (1992); U.S. Pat. No. 4,568,649 (1986); which are incorporated by reference herein. Reactions are performed in 96-well plates. The assay is conducted in 100 μl volume with 5.4 mM HEPES (pH 7.5), 11.7 MM KCl, 4.5 mM MgCl2, 0.36 mg/ml BSA, and 90 nM ^3H-dTTP. Assays are run with and without CHAPS, (3-[(3-Cholamidopropyl)-dimethylammoniol-1-propane-sulfonate) at a final concentration of 2 mM. HCMV polymerase is diluted in enzyme dilution buffer containing 50% glycerol, 250 mM NaCl, 10 mM HEPES (pH 7.5), 100 μg/ml BSA, and 0.01% sodium azide. The HCMV polymerase, which is expressed in recombinant baculovirus-infected SF-9 cells and purified according to literature procedures, is added at 10% (or 10 μl) of the final reaction volume, i.e., 100 μl. Compounds are diluted in 50% DMSO and 10 μl are added to each well. Control wells contain an equivalent concentration of DMSO. Unless noted otherwise, reactions are initiated via the addition of 6 nM biotinylated poly(dA)-oligo(dT) template/primer to reaction mixtures containing the enzyme, substrate, and compounds of interest. Plates are incubated in a 25° C. or 37° C. H2O bath and terminated via the addition of 40 μl/reaction of 0.5 M EDTA (pH 8) per well. Reactions are terminated within the time-frame during which substrate incorporation is linear and varied depending upon the enzyme and conditions used, i.e., 30 min. for HCMV polymerase. Ten (10) μl of streptavidin-SPA beads (20 mg/ml in PBS/10% glycerol) are added following termination of the reaction. Plates are incubated 10 min. at 37° C., then equilibrated to room temperature, and counted on a Packard Topcount. Linear regressions are performed and IC50's are calculated using computer software.
A modified version of the above HCMV polymerase assay is performed as described above, but with the following changes: Compounds are diluted in 100% DMSO until final dilution into assay buffer. In the previous assay, compounds are diluted in 50% DMSO. 4.5 mM dithiotherotol (DTT) is added to the polymerase buffer.
Background: In a scintillation proximity assay essentially only radioactivity close to the scintillant gives light.

Turning to `CN(Cc1cc2c3c(c1)c(=O)c(C(=O)NCc1ccc(Cl)cc1)cn3CC(=O)N2C)C[C@@H](O)c1nccs1` [Example 22, N-(4-chlorobenzyl)-9-{[[(2R)-2-hydroxy-2-(1,3-thiazol-2-yl)ethyl](methyl)amino]methyl}-1-methyl-2,7-dioxo-2,3-dihydro-1H,7H-pyrido[1,2,3-de]quinoxaline-6-carboxamide], the melting point lay in the range of 125 to 130 °C. Also, on HCMV polymerase, the IC50 was found to be 0.49 µM.
As for `CN(Cc1cc2c3c(c1)c(=O)c(C(=O)NCc1ccc(Cl)cc1)cn3CC(=O)N2C)CC(O)c1ccoc1` (racemic) [Example 4, rac N-(4-chlorobenzyl)-9-{([2-(3-furyl)-2-hydroxyethyl](methyl)amino)methyl}-1-methyl-2,7-dioxo-2,3-dihydro-1H,7H-pyrido[1,2,3-de]quinoxaline-6-carboxamide], the melting point was in the range of 145 to 148 °C. The IC50 on HCMV polymerase was found to be 0.57 µM.
`CN(Cc1cc2c3c(c1)c(=O)c(C(=O)NCc1ccc(Cl)cc1)cn3CC(=O)N2C)CC(O)Cc1ccccc1` (racemic) [Example 17, rac N-(4-chlorobenzyl)-9-{[(2-hydroxy-3-phenylpropyl)(methyl)amino]methyl}-1-methyl-2,7-dioxo-2,3-dihydro-1H,7H-pyrido [1,2,3-de]quinoxaline-6-carboxamide] returned a melting point of 121 to 127 °C. Besides, on HCMV polymerase, the IC50 was determined as 0.87 µM.
`CN(Cc1cc2c3c(c1)c(=O)c(C(=O)NCc1ccc(F)cc1)cn3CC(=O)N2C)C[C@@H](O)c1cc2ccccc2o1` [Example 36, 9-{[[(2R)-2-(1-benzofuran-2-yl)-2-hydroxyethyl](methyl)amino]methyl}-N-(4-fluorobenzyl)-1-methyl-2,7-dioxo-2,3-dihydro-1H,7H-pyrido[1,2,3-de]quinoxaline-6-carboxamide] returned a melting point of 94 to 96 °C. In addition, the IC50 on HCMV polymerase is below 0.03 µM.
The corresponding values for `CN(Cc1cc2c3c(c1)c(=O)c(C(=O)NCc1ccc(F)cc1)cn3CC(=O)N2C)C[C@@H](O)c1ccsc1` [Example 28, N-(4-fluorobenzyl)-9-{[[(2S)-2-hydroxy-2-thien-3-ylethyl](methyl)amino]methyl}-1-methyl-2,7-dioxo-2,3-dihydro-1H,7H-pyrido[1,2,3-de]quinoxaline-6-carboxamide] are 150 to 152 °C and 0.69 µM.
For `CN(Cc1cc2c3c(c1)c(=O)c(C(=O)NCc1ccc(F)cc1)cn3CC(=O)N2C)C[C@H](O)c1cc2ccccc2o1` [Example 37, 9-{[[(2S)-2-(1-benzofuran-2-yl)-2-hydroxyethyl](methyl)amino]methyl}-N-(4-fluorobenzyl)-1-methyl-2,7-dioxo-2,3-dihydro-1H,7H-pyrido[1,2,3-de]quinoxaline-6-carboxamide], the melting point lay within 195 to 197 °C. The half-inhibitory concentration (IC50) at HCMV polymerase came out at 1.19 µM.
For `Cc1cccc(C(O)CN(C)Cc2cc3c4c(c2)c(=O)c(C(=O)NCc2ccc(Cl)cc2)cn4CC(=O)N3C)n1` (racemic) [Example 8, rac N-(4-chlorobenzyl)-9-{([2-hydroxy-2-(6-methylpyridin-2-yl)ethyl](methyl)amino)methyl}-1-methyl-2,7-dioxo-2,3-dihydro-1H,7H-pyrido [1,2,3-de]quinoxaline-6-carboxamide], in that order: 156 to 158 °C and 1.1 µM.
`CN(Cc1cc2c3c(c1)c(=O)c(C(=O)NCc1ccc(Cl)cc1)cn3CC(=O)N2C)C[C@@H](O)c1cc2ccccc2o1` [Example 34, 9-{[[(2R)-2-(1-benzofuran-2-yl)-2-hydroxyethyl](methyl)amino]methyl)-N-(4-chlorobenzyl)-1-methyl-2,7-dioxo-2,3-dihydro-1H,7H-pyrido[1,2,3-de]quinoxaline-6-carboxamide]: the IC50 at HCMV polymerase was determined as 0.004 µM.
As for `CN(Cc1cc2c3c(c1)c(=O)c(C(=O)NCc1ccc(Cl)cc1)cn3CC(=O)N2CCO)C[C@@H](O)c1ccco1` [Example 31, N-(4-chlorobenzyl)-9-{([(2R)-2-(2-furyl)-2-hydroxyethyl](methyl)amino)methyl}-1-(2-hydroxyethyl)-2,7-dioxo-2,3-dihydro-1H,7H-pyrido[1,2,3-de]quinoxaline-6-carboxamide], the melting point fell in the range of 166 to 167 °C. The IC50 at HCMV polymerase turned out to be 2.89 µM.
The molecule `CN(Cc1cc2c3c(c1)c(=O)c(C(=O)NCc1ccc(F)cc1)cn3CC(=O)N2C)C[C@@H](O)c1ccco1` [Example 23, N-(4-fluorobenzyl)-9-{[[(2R)-2-(2-furyl)-2-hydroxyethyl](methyl)amino]methyl}-1-methyl-2,7-dioxo-2,3-dihydro-1H,7H-pyrido[1,2,3-de]quinoxaline-6-carboxamide] had a melting point of 150 to 152 °C. Further, on HCMV polymerase, the IC50 came out at 0.42 µM.
`CN(Cc1cc2c3c(c1)c(=O)c(C(=O)NCc1ccc(Cl)cc1)cn3CC(=O)N2C)C[C@H](O)c1cc2ccccc2o1` [Example 35, 9-{[[(2S)-2-(1-benzofuran-2-yl)-2-hydroxyethyl](methyl)amino]methyl}-N-(4-chlorobenzyl)-1-methyl-2,7-dioxo-2,3-dihydro-1H,7H-pyrido[1,2,3-de]quinoxaline-6-carboxamide]: the IC50 on HCMV polymerase came out at 0.18 µM.
On to `CN(Cc1cc2c3c(c1)c(=O)c(C(=O)NCc1ccc(F)cc1)cn3CC(=O)N2C)C[C@@H](O)c1ccccc1` [Example 29, N-(4-fluorobenzyl)-9-{[[(2S)-2-hydroxy-2-phenylethyl](methyl)amino]methyl}-1-methyl-2,7-dioxo-2,3-dihydro-1H,7H-pyrido[1,2,3-de]quinoxaline-6-carboxamide], for which the melting point was in the range of 150 to 152 °C. Further, the IC50 at HCMV polymerase came to 0.81 µM.
For the molecule `CN(Cc1cc2c3c(c1)c(=O)c(C(=O)NCc1ccc(F)cc1)cn3CC(=O)N2C)C[C@@H](O)c1nccs1` [Example 27, N-(4-fluorobenzyl)-9-{[[(2R)-2-hydroxy-2-(1,3-thiazol-2-yl)ethyl](methyl)amino]methyl}-1-methyl-2,7-dioxo-2,3-dihydro-1H,7H-pyrido[1,2,3-de]quinoxaline-6-carboxamide], the melting point fell in the range of 156 to 158 °C. The IC50 at HCMV polymerase was 2.08 µM.
For `Cc1cc(C(O)CN(C)Cc2cc3c4c(c2)c(=O)c(C(=O)NCc2ccc(Cl)cc2)cn4CC(=O)N3C)c(C)o1` (racemic) [Example 7, rac N-(4-chlorobenzyl)-9-{([2-(2,5-dimethyl-3-furyl)-2-hydroxyethyl](methyl)amino)methyl}-1-methyl-2,7-dioxo-2,3-dihydro-1H,7H-pyrido[1,2,3-de]quinoxaline-6-carboxamide], in that order: 157 to 160 °C and 0.25 µM.
Take `CN(Cc1cc2c3c(c1)c(=O)c(C(=O)NCc1ccc(Cl)cc1)cn3CC(=O)N2C)CC(O)c1ccccc1` (stereo not shown) [Example 1, N-(4-chlorobenzyl)-9-{[(2-hydroxy-2-phenylethyl) (methyl)amino]methyl}-1-methyl-2,7-dioxo-2,3-dihydro-1H,7H-pyrido[1,2,3-de]quinoxaline-6-carboxamide]: at HCMV polymerase, the concentration for half-maximal inhibition (IC50) was found to be 0.22 µM.
Still for that read-out and setting: the value for `CN(Cc1cc2c3c(c1)c(=O)c(C(=O)NCc1ccc(Cl)cc1)cn3CC(=O)N2C)C[C@@H](O)c1ccccn1` [Example 9, N-(4-chlorobenzyl)-9-{[[(2R)-2-hydroxy-2-pyridin-2-ylethyl](methyl)amino]methyl}-1-methyl-2,7-dioxo-2,3-dihydro-1H,7H-pyrido[1,2,3-de]quinoxaline-6-carboxamide] was 0.3 µM.
